System: UUO mice
Experiment: Wnt inhibitor (LGK974) treatment in UUO mice, renal histology, GR and β-catenin
Format: in vivo, mouse
Method: FIG. 24A-24J show inhibition of Wnt signaling abolished the fibrogenic phenotype in mice. (FIG. 24A) Immunohistochemical analysis of -catenin expression in the kidneys of control and diabetic CD-1 and C57BL/6 mice. n=8 biologically independent mice/group combined from two independent experiments were evaluated. Scale bar 50 μm. Representative images are shown; original magnification 200×. (FIG. 24B) Relative mRNA expression determined by qRT-PCR of Axin2, Tcf and fibronectin, in kidneys of control and diabetic CD-1 and C57BL/6 mice. n=6 biologically independent mice/group combined from two experiments were evaluated. Expression was normalized to the internal control 18S. (FIG. 24C) Schematic diagram representing the treatment protocol of Wnt inhibitor (LGK974; 5 mg/kg body weight) in diabetic CD-1 mice and (FIG. 24D) in UUO mice. (FIG. 24E) Masson trichrome and Sirius red staining in the kidneys of diabetic and Wnt inhibitor-treated diabetic CD-1 mice. Representative images (original magnification 300×) are shown. Relative area of fibrosis (%) and relative collagen deposition (%) were measured using the ImageJ program. n=8 biologically independent mice/group combined from two experiments were evaluated. Scale bar 50 μm. (FIG. 24F) Masson trichrome and Sirius red staining in the kidneys of UUO and Wnt inhibitor-treated UUO mice. Representative images (original magnification 300×) are shown. Relative area of fibrosis (%) and relative collagen deposition (%) were measured using the ImageJ program. n=8 biologically independent mice/group combined from two experiments were evaluated. Scale bar 50 μm. (FIGS. 24G-24H) GR protein levels in CD31-positive cells were analyzed by immunofluorescence in the kidneys of Wnti-treated diabetic mice and Wnti-treated UUO mice. FITC-labeled GR, rhodamine-labeled CD31 and DAPI were used. Merged images and representative pictures are shown; original magnification 300×. n=7 biologically independent mice/group combined from four experiments were evaluated. Scale bar 50 μm. (FIGS. 24I-24J) Immunohistochemical analysis of active -catenin expression in Wnti-treated diabetic mice and Wnti-treated UUO mice. n=7 biologically independent mice/group combined from three experiments were evaluated. Scale bar 30 μm. Data are mean SEM. In all panels, one-way Anova with Tukey multiple comparison post hoc test was used to calculate statistical significance. Significance—*p<0.05, **p<0.01, ***p<0.001.
Mouse model of unilateral ureteral obstruction (UUO). UUO surgical procedure was performed as previously described^19. Briefly, mice were anesthetized with isoflurane (3%-5% for induction and 1%-3% for maintenance). Mice were shaved on the left side of the abdomen, a vertical incision was made through the skin with a scalpel, and the skin was retracted. A second incision was made through the peritoneum to expose the kidney. The left ureter was ligated twice […] below the renal pelvis with surgical silk, and the ureter was then severed between the 2 ligatures. Then, the ligated kidney was placed gently back into its correct anatomical position, and sterile saline was added to replenish loss of fluid. The incisions were sutured and mice were individually caged. Buprenorphine was used as an analgesic. The first dose was administered 30 minutes before surgery and then every 12 h for 72 h, at a dose of 0.05 mg/kg subcutaneously. Mice were sacrificed and kidney and blood samples were harvested after perfusion with PBS at 10 days after UUO. Contralateral kidneys were used as a nonfibrotic control for all experiments using this model.
Morphological Evaluation. A point-counting method was utilized to evaluate the relative area of the mesangial matrix. The inventors analyzed PAS-stained glomeruli from each mouse using a digital microscope screen grid containing 540 (27×20) points. Masson's trichrome-stained images were evaluated by ImageJ software, and the fibrotic areas were estimated.
Sirius red staining. […]

With `Cc1cc(-c2ncc(CC(=O)Nc3ccc(-c4cnccn4)cn3)cc2C)ccn1` [LGK974] the ECM deposition (5 mg/kg) was “greatly diminished”, the collagen accumulation (5 mg/kg) was “greatly diminished” and the glomerulosclerosis (5 mg/kg) was “greatly diminished”. The “relative area of fibrosis” value (5 mg/kg) was “greatly diminished”, the “level of β-catenin” value (kidney immunohistochemistry) was “suppressed the level of β-catenin” and the “endothelial GR” value (kidney, GR in CD31-positive cells) was “substantially restored endothelial GR”.

Reference: patent US20250179167A1, “IL-6 INHIBITOR AS TREATMENT FOR NEPHROPATHY” (YALE UNIVERSITY, priority 2022, published 2025)
